In patent publication US7186825B2, “Conformationally restricted polyamine analogs as disease therapies” (Cellgate, Inc., priority 1999, dated 2007):
pEC50, pIC50: −log10 of the molar value. Counter-ions that a name gives are not always drawn. Like-named read-outs stand apart in the source and are kept apart here.

Experiments:
[1] = tested on: human prostate cancer cells LNCAP; assay: MTT assay, survival/growth of cultured human prostate cancer cells LNCAP; type: cell-based; conditions: figure legends, survival of cultured LNCAP cells, six days after drug treatment, read-out: ED50 (the source's name)
Method: (§1) Human breast cancer cell line MCF7 was grown in Richter's Improved Modified Eagle's Medium supplemented with 10% fetal bovine serum (FBS) and 2.2 g/L sodium bicarbonate. Human brain tumor cell line U251 MG-NCI was grown in Dulbecco's Modified Eagle's Medium supplemented with 10% FBS. Human lung cancer cell line A549 was grown in Ham's F-12K medium (Cellgro, Mediatech, Inc., VA), supplemented with 10% FBS and 2 mM L-glutamine. Human colon cancer cell line HT29 was cultured in McCoy's 5A medium (Gibco, BRL, Gaithersburg, Md.) supplemented with 10% FBS. Human prostate cancer cell lines PC-3, LNCAP and DuPro were grown in RPMI 1640 Medium (Cellgro, Mediatech, Inc., VA) supplemented with 10% FBS. Another human prostate cancer cell line DU145 was grown in Dulbecco's Modified Eagle's Medium (Gibco, BRL, Gaithersburg, Md.) supplemented with 5% FBS. The A549, MCF7, PC3, LNCAP and DuPro cell lines were cultured in 100 units/mL penicillin and 100 μg/mL streptomycin. HT29 and U251MG cell lines were grown in 50 μg/mL gentamycin (Gibco, BRL, Gaithersburg, Md.). DU145 cell line was maintained in 1% antibitic-antimycotic solution (Sigma, St. Louis, Mo.). The cell cultures were maintained at 37° C. in 5% CO2/95% humidified air. DuPro cells were obtained from M. Eileen Dolan, University of Chicago. All other cells are available from the American Type Culture Collection, Rockville, Md.
(§2) A conventional MTT assay was used to evaluate percent cell survival. Exponentially growing monolayer cells were plated in 96-well plates at a density of 500 cells per well and allowed to grow for 24 hours. Serial dilutions of the drugs were added to the wells. Six days after drug treatment, 25 μl of MTT solution (5 mg/ml) was added to each well and incubated for 4 hours at 37° C. Then 100 μl of lysis buffer (20% sodium dodecyl sulfate, 50% DMF, and 0.8% acetic acid, pH 4.7) was added to each well and incubated for an additional 22 hours. A microplate reader (“EMAX”-brand, Molecular Devices, Sunnyvale, Calif.) set at 570 nm was used to determine the optical density of the cultures. Results are expressed as a ratio of the optical density in drug-treated wells to the optical density in wells treated with vehicle only.
(§3) Using the protocols of Example 2, the porphyrin-polyamine conjugates were tested for activity in vitro in various cancer cell lines.

[2] = tested on: human prostate cancer cells DU145; assay: MTT assay, survival/growth of cultured human prostate cancer cells DU145; type: cell-based; conditions: for pEC50: figure legends, survival of cultured DU145 cells, MTT, six days after drug treatment, read-out: ED50 (the source's name); for pIC50: read-out: concentration needed for 50% growth inhibition (ID50), Table 3, DU-145
Method: as §1, §2, §3

[3] = tested on: human colon cancer cells HT29; assay: MTT assay, survival/growth of cultured human colon cancer cells HT29; type: cell-based; conditions: for pEC50: figure legends, survival of cultured HT29 cells, MTT, six days after drug treatment, read-out: ED50 (the source's name); for pIC50: read-out: concentration needed for 50% growth inhibition (ID50), Table 3, HT-29
Method: (§4) As shown in Table 3 and FIGS. 1–32, several novel conformationally restricted polyamine analogs were tested for anti-proliferative properties against cancer cells.
as §1, §2

[4] = tested on: human lung cancer cells A549; assay: MTT assay, survival/growth of cultured human lung cancer cells A549; type: cell-based; conditions: for pEC50: figure legends, survival of cultured A549 cells, MTT, six days after drug treatment, read-out: ED50 (the source's name); for pIC50: read-out: concentration needed for 50% growth inhibition (ID50); for pIC50 / concentration needed for 50% growth inhibition (ID50): Table 3, A549
Method: as §4, §1, §2

[5] = tested on: human prostate cancer cells PC3; assay: MTT assay, survival/growth of cultured human prostate cancer cells PC3; type: cell-based; conditions: for pEC50: figure legends, survival of cultured PC3 cells, MTT, six days after drug treatment, read-out: ED50 (the source's name); for pIC50: read-out: concentration needed for 50% growth inhibition (ID50), Table 3, PC-3
Method: as §1, §2, §3

[6] = tested on: human breast cancer cells MCF7; assay: MTT assay, survival/growth of cultured human breast cancer cells MCF7; type: cell-based; conditions: for pEC50: figure legends, survival of cultured MCF7 cells, MTT, six days after drug treatment, read-out: ED50 (the source's name); for pIC50: read-out: concentration needed for 50% growth inhibition (ID50), Table 3, MCF7
Method: as §4, §1, §2

[7] = tested on: human prostate cancer cells DUPRO; assay: MTT assay, survival/growth of cultured human prostate cancer cells DUPRO; type: cell-based; conditions: for pEC50: figure legends, survival of cultured DUPRO cells, MTT, six days after drug treatment, read-out: ED50 (the source's name); for pIC50: read-out: concentration needed for 50% growth inhibition (ID50), Table 3, DUPRO
Method: as §1, §2, §3

[8] = tested on: human brain tumor cells U251 MG NCI; assay: MTT assay, survival/growth of cultured human brain tumor cells U251 MG NCI; type: cell-based; conditions: for pEC50: figure legends, survival of cultured U251 MG NCI cells, MTT, six days after drug treatment, read-out: ED50 (the source's name); for pIC50: read-out: concentration needed for 50% growth inhibition (ID50), Table 3, U251MG
Method: as §1, §2

Row | Structure (SMILES) | pEC50 [1] | pEC50 [2] | pEC50 [4] | pEC50 [5] | pEC50 ([1]; Homo sapiens, 144 h) | pEC50 ([2]; Homo sapiens, DU-145, 144 h) | pIC50 ([2]; Homo sapiens) | pEC50 ([7]; Homo sapiens, 144 h) | pIC50 ([7]; Homo sapiens) | pIC50 ([3]; Homo sapiens) | pEC50 ([4]; Homo sapiens, 144 h) | pIC50 ([4]; Homo sapiens) | pEC50 ([5]; Homo sapiens, PC-3, 144 h) | pIC50 ([5]; Homo sapiens) | pEC50 [8] | pIC50 [2] | pIC50 [6] | pIC50 [7] | pIC50 [3] | pIC50 [5] | further results
1 | CCNCCCCNCCCCNCCCCNCCCC1=C(C)c2cc3[nH]c(cc4nc(cc5[nH]c(cc1n2)c(CCCNCCCCNCCCCNCCCCNCC)c5C)C(CC)=C4C)c(CC)c3C (as salt: hydrochloride) [SL-11202] |  |  |  |  |  |  |  |  |  |  |  |  |  |  |  |  |  |  |  |  | melting point: 200 °C
2 | CCNCCCCNCCCCNCCCCNCC [BE-444, N1,N14-bis(ethyl) homospermine, reference compound] | 7.00 | 7.52 | 6.82 | 6.15 |  |  |  |  |  |  |  |  |  |  |  |  |  |  |  |  | pEC50 [3]: 6.03
3 | CCNCCCCNCCCCNCCCCNCCCCNCC [BE-4444, 1,19-bis(ethylamino)-5,10,15-triazanonadecane, reference compound] |  |  |  |  | 6.85 | 7.15 | 7.15 | 6.70 | 6.70 | 6.10 | < 4.51 | 6.40 | 6.22 | 6.27 |  |  |  |  |  |  | pEC50 ([6]; Homo sapiens, 144 h): < 4.51; pIC50 ([6]; Homo sapiens): < 4.51; pEC50 ([3]; Homo sapiens, HT-29, 144 h): 6.30
4 | CCNCCCCNCC1CC1CNCCCCNCC (centres unmarked) [SL-11093] | 6.68 | 7.80 | 6.59 | 5.80 |  |  |  |  |  |  |  |  |  |  | 7.15 | 8.00 | 6.18 | 7.22 | 6.40 | 4.84 | pEC50 [6]: 6.18; pIC50 [4]: 6.59
5 | CCNCCCCNCC1CC1CNCCCCNCC (centres unmarked) [SL-11098] | 6.77 | 7.70 | 6.54 | 5.85 |  |  |  |  |  |  |  |  |  |  | 7.00 | 7.74 | < 4.51 | 7.10 | 6.40 | 5.85 | pIC50 [8]: 7.00; concentration needed for 50% growth inhibition (ID50) [4]: 510 nM
6 | CCNCCCCNCC1CCC1CNCCCCNCC (centres unmarked) [SL-11099] | 6.68 | 7.85 | 6.29 | 5.60 |  |  |  |  |  |  |  |  |  |  | 6.96 | 7.85 | 4.58 | 7.10 | 6.00 | 5.60 | pIC50 [8]: 6.96; pEC50 [6]: 4.58; pEC50 [7]: 7.10; concentration needed for 50% growth inhibition (ID50) [4]: 650 nM
7 | CCNCCCCNCC1CCC1CNCCCCNCC (centres unmarked) [SL-11100] | 6.15 | 7.68 | 6.19 | 5.33 |  |  |  |  |  |  |  |  |  |  | 6.66 | 7.68 | < 4.51 | 6.54 | 5.70 | 5.33 | pIC50 [8]: 6.66; pEC50 [7]: 6.52; concentration needed for 50% growth inhibition (ID50) [4]: 2200 nM
8 | CCNC/C=C\CNC/C=C\CNC/C=C\CNCC [SL-11108] | 5.11 | 6.89 |  | 5.66 |  |  |  |  |  |  |  |  |  |  | 5.70 | 6.89 | < 4.51 | 6.01 | 5.70 | 5.66 | pIC50 [8]: 5.70; pEC50 [7]: 6.01; concentration needed for 50% growth inhibition (ID50) [4]: >31250 nM
9 | CCNC/C=C\CNCCCCNC/C=C\CNCC [SL-11114] |  |  |  |  | 5.52 | 6.89 | 6.87 | 6.19 | 6.19 | 5.44 | < 4.51 | < 4.51 | 6.15 | 6.15 |  |  |  |  |  |  | 
10 | CCNC/C=C\CNCCCCNCCCCNCC [SL-11118] |  |  |  |  | 6.68 | 7.30 | 7.30 | 6.60 | 6.60 | 6.01 | 6.67 | 6.68 | 5.78 | 5.78 |  |  |  |  |  |  | 
11 | CCNC/C=C\CNCCCCNCCCCNCCCCNCC [SL-11121] |  |  |  |  | 6.85 | 7.10 | 7.10 | 6.40 | 6.40 | 6.10 | < 4.51 | < 4.51 | 6.28 | 6.28 |  |  |  |  |  |  | pEC50 ([6]; Homo sapiens, 144 h): 4.77; pIC50 ([6]; Homo sapiens): 4.77
12 | CCNC/C=C\CNC/C=C\CNC/C=C\CNC/C=C\CNCC [SL-11126] |  |  |  |  | 6.26 | 6.29 | 6.29 | 5.96 | 5.96 | 5.82 | < 4.51 | < 4.51 | 6.70 | 6.70 |  |  |  |  |  |  | pEC50 ([6]; Homo sapiens, 144 h): 6.15; pIC50 ([6]; Homo sapiens): 6.15
13 | CCNC/C=C\CNCCCCNCCCCNC/C=C\CNCC [SL-11128] |  |  |  |  | 6.52 | 6.85 | 6.85 | 5.89 | 5.90 | 5.87 |  |  | 6.30 | 6.30 |  |  |  |  |  |  | 
